From patent publication US9814787B2, “Luciferin amides” (University of Massachusetts, priority 2013, dated 2017)

Experiments:
[1] = biological target: T1, FAAH (Homo sapiens, UniProt O00519); assay: In vitro FAAH assay: luciferin amide treated with recombinant FAAH, then R218K luciferase, bioluminescence; assay type: biochemical; details: 50 μM luciferin amide; for effect of ten-fold dilution of FAAH on bioluminescent signal: FAAH vs FAAH 1:10, one hour at room temperature; for increase in bioluminescence signal on addition of FAAH versus buffer: 10 minutes at room temperature, R218K luciferase 3 μg/mL
T1 construct: purchased Cayman Chemical
T1 sequence (O00519 1-579): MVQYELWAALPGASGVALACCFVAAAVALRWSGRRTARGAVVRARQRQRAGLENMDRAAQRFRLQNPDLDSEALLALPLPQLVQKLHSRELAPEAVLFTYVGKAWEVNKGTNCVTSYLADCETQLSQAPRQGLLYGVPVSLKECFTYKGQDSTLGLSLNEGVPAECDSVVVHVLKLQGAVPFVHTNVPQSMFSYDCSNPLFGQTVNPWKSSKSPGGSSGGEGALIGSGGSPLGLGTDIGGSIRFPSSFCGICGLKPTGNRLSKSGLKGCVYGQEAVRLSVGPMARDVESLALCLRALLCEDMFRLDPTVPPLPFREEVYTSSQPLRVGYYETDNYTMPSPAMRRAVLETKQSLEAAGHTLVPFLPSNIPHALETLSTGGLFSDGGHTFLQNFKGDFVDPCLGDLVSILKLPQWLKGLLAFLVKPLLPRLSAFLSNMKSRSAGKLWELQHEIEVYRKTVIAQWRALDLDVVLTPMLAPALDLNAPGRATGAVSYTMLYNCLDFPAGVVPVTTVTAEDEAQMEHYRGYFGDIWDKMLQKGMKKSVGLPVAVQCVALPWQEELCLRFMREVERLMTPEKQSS
Method: Recombinant FAAH, FAAH assay buffer, and FAAH inhibitors URB-597, PF-750, and PF-3845 were purchased from Cayman Chemical.
Bioluminescence assays were performed in either a Turner Veritas luminometer or a Xenogen IVIS-100 imaging system. For Veritas experiments, white 96-well plates were used (Costar 3912). For IVIS experiments, black 96-well plates were used (Costar 3915).
(§1) Luciferin amides (50 μM) were treated with FAAH and FAAH buffer (Cayman Chemical) in the presence or absence of 50 μM FAAH inhibitor URB-597 or 50 μM luciferase inhibitor 2-(4′-methoxyphenyl)benzothiazole. After 10 minutes at room temperature, R218K mutant firefly luciferase was added at a concentration of 3 μg/mL and bioluminescence was detected on a Turner Veritas luminometer.
(§2) Four luciferin amides (50 μM), i.e., Compounds 1, 9, 10, and 25, were treated with a buffer alone, a buffer containing FAAH, a buffer containing FAAH+50 μM URB-597 (i.e., a FAAH inhibitor), or a buffer containing FAAH+50 μM luciferase inhibitor 2-(4′-methoxyphenyl)benzothiazole. After 10 minutes at room temperature, R218K luciferase was added at a concentration of 3 μg/mL and bioluminescence was detected on a Turner Veritas.
(§3) Three luciferin amides (50 μM), i.e., Compounds 2, 9, and 25, were treated with a buffer alone, a buffer containing FAAH, a buffer containing FAAH 1:10 (i.e., a ten-fold dilution of FAAH), a buffer containing pig liver esterase (PLE), or a buffer containing PLE 1:10 (i.e., a ten-fold dilution of PLE). After one hour at room temperature, R218K luciferase was added at a concentration of 3 μg/mL and bioluminescence was detected on a Turner Veritas.

[2] = test system: pig liver esterase (PLE); assay: Treatment of luciferin amides with pig liver esterase, then R218K luciferase, bioluminescence; assay type: biochemical; details: 50 μM luciferin amide, PLE and PLE 1:10, one hour at room temperature
Method: as §3

[3] = test system: FVB mice expressing luciferase in brain tissue; assay: In vivo bioluminescence imaging in brains of FVB mice injected with AAV9-luc+ in the striatum
Method: (§4) FVB mice were injected with AAV9-luc+ in the brain striatum. Bioluminescence assays were performed approximately nine months after AAV injection. Each luciferin amide was diluted into PBS to the indicated concentration from a 50 mM DMSO stock solution and filtered (0.22 μm) prior to intraperitoneally injection (0.1 mL per mouse). Mice were anesthetized with isoflurane (2% in 1 L/min oxygen) and images acquired on a Xenogen IVIS 100 imaging system and analyzed with Living Image software.
Certain luciferin amides described herein were tested to determine whether they would image well in live mice. For these studies, FVB mice were injected with adeno-associated virus 9 (AAV9)-luciferase constructs into the brain striatum.
Bioluminescence imaging (BLI) in the brain is more challenging than imaging in the rest of the organism, in part because a luciferase substrate (i.e., a luciferin) must cross the blood-brain barrier. Therefore, the ability of a synthetic luciferin (i.e., Compound 9's corresponding luciferin (CycLuc1)) to allow bioluminescence imaging in these mice, as compared to the native firefly luciferase substrate (i.e., D-luciferin) was first tested. Specifically, each substrate was injected intraperitoneally (IP) in PBS at a volume of 0.1 mL, D-luciferin being at a concentration of 100 mM and CycLuc1 being at a concentration of 5 mM. […] CycLuc1 was then injected at a 320-fold lower dose (0.06 mL of 0.5 mM) than D-luciferin.
Specifically, Compound 9 (i.e., CycLuc1 amide) was injected at 0.5 mM in 0.5% DMSO/PBS (0.06 mL).
In this figure, mice in the top row were treated with luciferin amides in the amounts indicated in the figure, and the mice in the bottom row were the same mice that were imaged one day later using a standard dose of D-luciferin.

[4] = biological target: R218K mutant firefly luciferase (Photinus pyralis, UniProt P08659, R218K); assay: In vitro FAAH assay in presence of luciferase inhibitor 2-(4′-methoxyphenyl)benzothiazole; assay type: biochemical; details: 50 μM luciferase inhibitor, 50 μM luciferin amide
Chain of R218K mutant firefly luciferase (P08659 whole entry R218K): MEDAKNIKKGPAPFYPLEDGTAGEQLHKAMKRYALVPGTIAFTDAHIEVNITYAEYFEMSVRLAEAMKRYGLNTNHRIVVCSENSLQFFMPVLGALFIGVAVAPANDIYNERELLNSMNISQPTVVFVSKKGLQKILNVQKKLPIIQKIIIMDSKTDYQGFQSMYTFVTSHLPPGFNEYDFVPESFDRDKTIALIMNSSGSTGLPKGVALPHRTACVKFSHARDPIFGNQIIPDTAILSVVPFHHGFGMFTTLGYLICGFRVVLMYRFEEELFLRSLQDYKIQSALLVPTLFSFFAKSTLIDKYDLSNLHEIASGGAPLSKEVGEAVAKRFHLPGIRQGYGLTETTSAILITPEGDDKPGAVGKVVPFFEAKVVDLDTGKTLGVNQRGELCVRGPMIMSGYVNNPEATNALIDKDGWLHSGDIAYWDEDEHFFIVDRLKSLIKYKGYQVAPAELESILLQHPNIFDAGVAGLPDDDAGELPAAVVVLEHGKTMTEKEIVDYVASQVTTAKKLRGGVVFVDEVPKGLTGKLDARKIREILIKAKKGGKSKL
Method: as §1
as §2, with “Veritas. […] These bioluminescence signals were inhibited by more than 100-fold by treatment with the FAAH inhibitor URB-597.” for “Veritas.”

[5] = biological target: T2, FAAH (Mus musculus, UniProt O08914); assay: In vivo FAAH inhibition assay with PF-3845; design: species or system mice
T2 construct: metabolized into CycLuc1 by endogenous FAAH activity; from tissue; host or cells: brain (striatum) of live FVB mice expressing AAV9-delivered luciferase
T2 sequence (O08914 1-579): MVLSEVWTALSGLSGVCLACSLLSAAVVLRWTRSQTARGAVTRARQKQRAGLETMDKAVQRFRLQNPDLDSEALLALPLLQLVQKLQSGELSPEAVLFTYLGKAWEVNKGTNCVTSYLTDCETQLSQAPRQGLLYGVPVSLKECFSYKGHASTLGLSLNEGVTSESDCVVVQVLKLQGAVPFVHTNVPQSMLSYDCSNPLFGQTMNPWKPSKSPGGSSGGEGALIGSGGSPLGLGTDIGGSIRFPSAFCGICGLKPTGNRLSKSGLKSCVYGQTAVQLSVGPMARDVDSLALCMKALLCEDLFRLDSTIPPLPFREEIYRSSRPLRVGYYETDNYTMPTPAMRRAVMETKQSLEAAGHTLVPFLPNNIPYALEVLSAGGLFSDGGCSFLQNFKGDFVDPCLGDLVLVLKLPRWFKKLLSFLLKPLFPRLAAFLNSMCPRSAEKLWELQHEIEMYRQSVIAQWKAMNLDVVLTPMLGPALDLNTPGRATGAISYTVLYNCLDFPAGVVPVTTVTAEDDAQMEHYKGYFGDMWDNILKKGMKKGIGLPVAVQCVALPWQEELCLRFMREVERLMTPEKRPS
Method: as §4
Mice were injected intraperitoneally with 1 mg/mL of a specific FAAH inhibitor PF-3845 dissolved in 18:1:1 PBS:ethanol:emulphor (0.1 mL), or with an equal volume of 18:1:1 PBS:ethanol:emulphor control vehicle. Thirty minutes after injection, the mice were imaged as described above.
FAAH is highly expressed in most tissues, particularly in the brain. To determine whether the luciferin amides are cleaved exclusively by FAAH in the brain tissue, eight FVB mice expressing AAV9-luciferase in the striatum were divided into two groups: (1) four mice were injected IP with 1 mg/mL of a specific FAAH inhibitor PF-3845 dissolved in 18:1:1 PBS:ethanol:emulphor (0.1 mL), and (2) four mice were treated with an equal volume of 18:1:1 PBS:ethanol:emulphor control vehicle without PF-3845. After 30 minutes, one mouse from each group was IP injected with 5 mM CycLuc1 (i.e., Compound 9's corresponding luciferin) in PBS (0.1 mL), and three were injected with 0.1 mM Compound 5 in 0.2% DMSO/PBS (0.1 mL). The mice were imaged 10 minutes after substrate injection. Mice in the right panel were group (1) (i.e., treated with a FAAH inhibitor) and mice in the left panel were from group (2) (i.e., without being treated with a FAAH inhibitor).

[6] = 0.06 mL of 0.5 mM in 0.5% DMSO/PBS

| SMILES | effect of ten-fold dilution of FAAH on bioluminescent signal [1] | bioluminescence signal after treatment with PLE [2] | increase in bioluminescence signal on addition of FAAH versus buffer [1] [fold] | light emission relative to an equivalent dose of CycLuc1 [3, 6] | light emission relative to the 5 mM CycLuc1 dose [3, 6] | brain bioluminescence signal relative to D-luciferin (0.1 mL of 100 mM) ([3]; 0.06 mL of 0.5 mM, 320-fold lower dose) | inhibition of the signal by luciferase inhibitor 2-(4′-methoxyphenyl)benzothiazole [4] [fold] | light emission in brains of live mice (qualitative) ([3]; mouse, in vivo) | total photon flux ([5]; 5 mM in PBS (0.1 mL) IP, groups (1) PF-3845 and (2) vehicle, 10 minutes after substrate) | change of light output by FAAH inhibitor PF-3845 (group 1 vs group 2) ([5]; PF-3845 1 mg/mL (0.1 mL) IP 30 minutes before substrate) | persistence of signal relative to D-luciferin ([3]; 0.06 mL of 0.5 mM) | duration of signal ([3]; IP, 0.1 mL of 5 mM) | time of peak signal ([3]; IP, 0.1 mL of 5 mM) [min] | brain bioluminescence signal relative to D-luciferin (0.1 mL of 100 mM) ([3]; IP, 0.1 mL of 5 mM in PBS, 20-fold lower dose) |
| --- | --- | --- | --- | --- | --- | --- | --- | --- | --- | --- | --- | --- | --- | --- |
| CN(C)c1ccc2nc(C3=N[C@@H](C(N)=O)CS3)sc2c1 [Compound 2, (S)-2-(6-(dimethylamino)benzo[d]thiazol-2-yl)-4,5-dihydrothiazole-4-carboxamide] | corresponding reduction in the intensity of the bioluminescent signal | failed to elicit a bioluminescence signal | – | – | – | – | – | – | – | – | – | – | – | – |
| NC(=O)[C@H]1CSC(c2nc3cc4c(cc3s2)NCC4)=N1 [Compound 9, (S)-4,5-dihydro-2-(6,7-dihydro-5H-thiazolo[4,5-f]indol-2-yl)thiazole-4-carboxamide] | corresponding reduction in the intensity of the bioluminescent signal | failed to elicit a bioluminescence signal | 8972 | exceeded that obtained from an equivalent dose of CycLuc1 itself | nearly equaling to the light emission obtained from the 5 mM CycLuc1 dose | over an order of magnitude greater | 2.3 | – | – | – | – | – | – | – |
| NC(=O)[C@H]1CSC(c2nc3ccc(O)cc3s2)=N1 [Compound 25, (S)-4,5-dihydro-2-(6-hydroxybenzothiazol-2-yl)thiazole-4-carboxamide] | corresponding reduction in the intensity of the bioluminescent signal | failed to elicit a bioluminescence signal | 269 | – | – | – | 14.5 | relatively weak light emission | – | – | – | – | – | – |
| O=C(O)[C@H]1CSC(c2nc3cc4c(cc3s2)NCC4)=N1 [CycLuc1, reference compound] | – | – | – | – | – | – | – | – | 9×10^6 p/s | unchanged | persisted for a longer time | over 2 hours | ~10 | an order of magnitude higher signal than D-luciferin |
